The record followed here is patent publication US20150004134A1, “TREATMENT OF CANCER WITH HETEROCYCLIC INHIBITORS OF GLUTAMINASE” (Calithera Biosciences, Inc., priority 2012, published 2015).

By IC50 is commonly meant the midpoint of a concentration-inhibition curve.

The subject of the first experiment is P493-6 (myc "on") cells. Put plainly: Cell Proliferation Assay. Type of experiment: cell-based. The note with it: P493-6, 72 h, read-out: Cell prolif P493 72 h IC50, P493-6 cells, 72 h. The gist of the method:
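P493-6 cells with myc on, 10,000 per well in RPMI/10% FBS, exposed to serially diluted compound (0.5% DMSO final) for 72 h at 37 °C, 5% CO2. Antiproliferative effect read by Cell Titer Glo luminescence or Viacount FACS viability count.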
For `CC(=O)NCc1cccc(CC(=O)Nc2nnc(CCCCc3ccc(NC(C)=O)nn3)s2)c1` [Compound 459], the IC50 is 570 nM. `CC(=O)Nc1ccc(CCCCc2nnc(NC(=O)Cc3cccc(CNC(=O)CC(C)C)c3)s2)nn1` [Compound 461]: the half-maximal inhibitory concentration (IC50) worked out at 62 nM.

Take `CC(C)(C)OC(=O)NCc1ccccc1CC(=O)Nc1nnc(CCCCc2ccc(NC(=O)Cc3ccccc3)nn2)s1` [Compound 464]: the IC50 stood at 59 nM. As for `COc1cccc(CC(=O)Nc2ccc(CCCCc3nnc(NC(=O)C(O)c4cccc(Cl)c4)s3)nn2)c1` (stereo not shown) [Compound 467], the 50% inhibitory concentration (IC50) came to 47 nM.

On to `CC(C(=O)Nc1ccc(CCCCc2nnc(NC(=O)C(O)c3cccc(Cl)c3)s2)nn1)c1ccccc1` (stereo not shown) [Compound 468], for which the 50% inhibitory concentration (IC50) came out at 270 nM. For the compound `CN(C)C(=O)Cc1cccc(CC(=O)Nc2nnc(CCCCc3ccc(NC(=O)Cc4ccccc4)nn3)s2)c1` [Compound 472], the IC50 came out at 24 nM. In the case of `O=C(Cc1ccccc1)Nc1ccc(CCCCc2nnc(NC(=O)Cc3cccc(CC(=O)N4CCC(F)(F)CC4)c3)s2)nn1` [Compound 474], the IC50 turned out to be 4 nM.

Turning to `O=C(Cc1ccccc1)Nc1ccc(CCCCc2nnc(NC(=O)Cc3cccc(CN4CCCCC4=O)c3)s2)nn1` [Compound 476], the 50% inhibitory concentration (IC50) is 12 nM. On to `C[C@@](O)(C(=O)NCc1cccc(CC(=O)Nc2nnc(CCCCc3ccc(NC(=O)Cc4ccccc4)nn3)s2)c1)C(F)(F)F` [Compound 477], for which the IC50 was 15 nM. Turning to `CN(C)CC(=O)Nc1ccc(CCCCc2nnc(NC(=O)Cc3cccc(CNC(=O)OC(C)(C)C)c3)s2)nn1` [Compound 478], the IC50 came out at 46 nM. The same measure, in the same setting: for `O=C(Cc1ccccc1)Nc1ccc(CCCCc2nnc(NC(=O)Cc3cccc(CN4CCCC4=O)c3)s2)nn1` [Compound 479] the value was 30 nM; for `O=C(Cc1ccccc1)Nc1ccc(CCCCc2nnc(NC(=O)Cc3cccc(OCc4ccccn4)c3)s2)nn1` [Compound 480], 6300 nM. The same measure, in the same setting: the figure for `CC(C(=O)Nc1nnc(CCCCc2ccc(NC(=O)Cc3cccc(CNC(=O)OC(C)(C)C)c3)nn2)s1)c1ccccc1` (stereo not shown) [Compound 489] is 23 nM. On the same count and under the same terms, for `CC(=O)Nc1nnc(CCCCc2ccc(NC(=O)Cc3cccc(CNC(=O)OC(C)(C)C)c3)nn2)s1` [Compound 491] the value was 23 nM; for `CC(C)(C)OC(=O)NCc1cc(CC(=O)Nc2nnc(CCCCc3ccc(NC(=O)Cc4ccccc4)nn3)s2)ccc1F` [Compound 492], 14 nM; for `CC(C)(C)OC(=O)N1CCN(Cc2cc(CC(=O)Nc3nnc(CCCCc4ccc(NC(=O)Cc5ccccc5)nn4)s3)ccc2F)CC1` [Compound 493], 57 nM.

For `O=C(Cc1ccccc1)Nc1ccc(CCCCc2nnc(NC(=O)Cc3ccc(F)c(CN4CCNCC4)c3)s2)nn1` [Compound 494], the IC50 was 580 nM. Same read-out and setting: for `CCCCNC(=O)Cc1cccc(CC(=O)Nc2nnc(CCCCc3ccc(NC(=O)Cc4ccccc4)nn3)s2)c1` [Compound 496] the value was 17 nM; for `O=C(Cc1ccccc1)Nc1ccc(CCCCc2nnc(NC(=O)C(O)c3ccc(-c4ccccc4)cc3OCCO)s2)nn1` (stereo not shown) [Compound 504], 120 nM. Still for that read-out and setting: for `CC(C)(C)OC(=O)NCc1cccc(CC(=O)Nc2nnc(CCCCc3ccc(NC(=O)C(O)(CO)c4ccccc4)nn3)s2)c1` (stereo not shown) [Compound 507] the value was 41 nM; for `COC(C(=O)Nc1ccc(CCCCc2nnc(NC(=O)Cc3cccc(CNC(=O)OC(C)(C)C)c3)s2)nn1)c1ccccc1` (stereo not shown) [Compound 508], 20 nM; for `COC(C(=O)Nc1nnc(CCCCc2ccc(NC(=O)Cc3cccc(CNC(=O)OC(C)(C)C)c3)nn2)s1)c1ccccc1` (stereo not shown) [Compound 509], 9 nM.

`O=C(Cc1ccccc1)Nc1ccc(CCCCc2nnc(NC(=O)CC3=CN4CCCN=C4S3)s2)nn1` [Compound 511]: the IC50 is 1100 nM. With `O=C(Cc1ccccc1)Nc1ccc(CCCCc2nnc(NC(=O)Cc3cccc4[nH]ncc34)s2)nn1` [Compound 512], the 50% inhibitory concentration (IC50) was determined as 46 nM.

Consider `COc1cc(CC(=O)Nc2nnc(CCCCc3ccc(NC(=O)Cc4ccccc4)nn3)s2)ccc1F` [Compound 515], for which the IC50 came out at 59 nM. For `CC(=O)N1CCN(Cc2cc(CC(=O)Nc3nnc(CCCCc4ccc(NC(=O)Cc5ccccc5)nn4)s3)ccc2F)CC1` [Compound 528], the IC50 is 44 nM. As to `CC(C)(C)OC(=O)NCc1cccc(CC(=O)Nc2nnc(CCCCc3ccc(NC(=O)C4(C)COC(C)(C)OC4)nn3)s2)c1` [Compound 529], the half-maximal inhibitory concentration (IC50) was found to be 160 nM. Consider `COc1ccccc1CC(=O)Nc1nnc(CCCCc2ccc(NC(=O)Cc3ccccc3Cl)nn2)s1` [Compound 531], for which the IC50 came to 42 nM. Same read-out and setting: for `O=C(Cc1ccccc1F)Nc1ccc(CCCCc2nnc(NC(=O)Cc3ccccc3F)s2)nn1` [Compound 534] the value was 44 nM. Turning to `Cc1ccccc1CC(=O)Nc1nnc(CCCCc2ccc(NC(=O)Cc3ccccc3Cl)nn2)s1` [Compound 535], the IC50 turned out to be 90 nM.

With `Cc1ccccc1CC(=O)Nc1nnc(CCCCc2ccc(NC(=O)Cc3ccccc3F)nn2)s1` [Compound 536], the IC50 stood at 71 nM. On to `COc1cc(CC(=O)Nc2ccc(CCCCc3nnc(NC(=O)Cc4ccccc4)s3)nn2)ccc1F` [Compound 537], for which the IC50 came to 76 nM. `CC(NC(=O)OC(C)(C)C)c1cccc(CC(=O)Nc2nnc(CCCCc3ccc(NC(=O)Cc4ccccc4)nn3)s2)c1` (stereo not shown) [Compound 541]: the IC50 turned out to be 6 nM. On to `O=C(Cc1ccccc1)Nc1ccc(CCCCc2nnc(NC(=O)Cc3cccc(Cl)c3F)s2)nn1` [Compound 545], for which the 50% inhibitory concentration (IC50) worked out at 46 nM. For the compound `CCOc1ccc(CC(=O)Nc2nnc(CCCCc3ccc(NC(=O)Cc4ccccc4)nn3)s2)cc1OC` [Compound 547], the half-inhibitory concentration (IC50) was 31 nM. In the case of `CCCC(=O)OCN(C(=O)Cc1cccc(CNC(=O)OC(C)(C)C)c1)c1nnc(CCCCc2ccc(NC(=O)Cc3ccccc3)nn2)s1` [Compound 552], the IC50 stood at 5 nM.

On to `COc1cc(CC(=O)Nc2nnc(CCCCc3ccc(NC(=O)Cc4ccccc4)nn3)s2)ccc1O` [Compound 554], for which the IC50 is 172 nM. With `CC(C)Cc1ccc(C(C)C(=O)Nc2nnc(CCCCc3ccc(NC(=O)Cc4ccccc4)nn3)s2)cc1` (stereo not shown) [Compound 557], the half-maximal inhibitory concentration (IC50) turned out to be 120 nM.

For the compound `CCCOc1ccc(C(O)C(=O)Nc2nnc(CCCCc3ccc(NC(=O)Cc4ccccc4)nn3)s2)cc1` (stereo not shown) [Compound 558], the IC50 is 28 nM.

As for `CC(N)c1cccc(CC(=O)Nc2ccc(CCCCc3nnc(NC(=O)Cc4ccccc4)s3)nn2)c1` (stereo not shown) [Compound 560], the 50% inhibitory concentration (IC50) is 37 nM. `O=C(Cc1ccccc1F)Nc1ccc(CCCCc2nnc(NC(=O)Cc3ccccc3Cl)s2)nn1` [Compound 566]: the IC50 was found to be 15 nM. On the same count and under the same terms, for `CCCC(=O)OCN(C(=O)C(CO)c1cccc(CNC(=O)OC(C)(C)C)c1)c1nnc(CCCCc2ccc(NC(=O)Cc3ccccc3)nn2)s1` (stereo not shown) [Compound 567] the value was 21 nM. Regarding `CC(C(=O)Nc1nnc(CCCCc2ccc(NC(=O)Cc3ccccc3)nn2)s1)c1ccc(F)c(CNC(=O)OC(C)(C)C)c1` (stereo not shown) [Compound 568], the half-maximal inhibitory concentration (IC50) was determined as 28 nM.

For the compound `CN(Cc1cc(CC(=O)Nc2nnc(CCCCc3ccc(NC(=O)Cc4ccccc4)nn3)s2)ccc1F)C(=O)OC(C)(C)C` [Compound 569], the 50% inhibitory concentration (IC50) stood at 11 nM. On to `CCCC(=O)OCN(C(=O)Cc1cccc(CC(=O)N2CCC(F)(F)CC2)c1)c1nnc(CCCCc2ccc(NC(=O)Cc3ccccc3)nn2)s1` [Compound 570], for which the half-inhibitory concentration (IC50) came out at 9 nM.

The same experiment, now with this note: P493-6, 72 h, read-out: Cell prolif P493 72 h IC50, P493 cells, 72 h.
As to `O=C(Cc1ccccc1)Nc1nnc(CCCCc2nnc(NC(=O)C(O)c3cccc(Cl)c3)s2)s1` (stereo not shown) [Compound 527], the IC50 is 98 nM.
